Measured values taken from PMC8945686, “Anticancer Effects with Molecular Docking Confirmation of Newly Synthesized Isatin Sulfonamide Molecular Hybrid Derivatives against Hepatic Cancer Cell Lines” (Biomedicines, 2022).
Values joined by “and” are separate entries in the source; they are usually repeats but may differ in a detail not shown here. Identical values can stand only once.

How the values were obtained:
mice = experiment: In vivo acute (14-day) oral toxicity study; conditions: for S.ALT / S.AST / S.Creatinine / S.D.Bilirubin / S.T.Bilirubin / S.Urea: 14 days after single dose, doxorubicin 15 mg/kg I.P; for S.ALT / S.AST / S.Creatinine / S.D.Bilirubin / S.T.Bilirubin / S.Urea / Histopathology of liver and kidney tissues (H and E) versus control groups / Kidney histology (H and E photomicrographs) / Liver histology (H and E photomicrographs): compounds 250 mg/kg oral; for Histopathology of liver and kidney tissues (H and E) versus control groups / Kidney histology (H and E photomicrographs) / Liver histology (H and E photomicrographs) / Physical or abnormal changes (body weight, skin, fur, eyes, behavior, overall appearance): 14 days; for Histopathology of liver and kidney tissues (H and E) versus control groups / Kidney histology (H and E photomicrographs) / Liver histology (H and E photomicrographs): Dox 15 mg/kg i.p.; for Survival over the treatment period (14 days) / Physical or abnormal changes (body weight, skin, fur, eyes, behavior, overall appearance): single acute oral dose of 250 mg/kg
Excerpt: GPower 3.0.10 software was used to estimate the sample size needed for the experiment and the number of mice per group but, according to the Organization for Economic Cooperation and Development (OECD) Test Guidelines No. 407 (OECD, 2008 and updated 2017) and under the International Academy of Science’s Guide for the Care and Use of Laboratory Animals, as well as the ARRIVE guidelines, to use the least number of mice per group for the acute single dose oral toxicity test.
Animals were divided randomly into nine groups (5 animals per group). Before the experiment, the body weight (BW) of all mice was recorded. All mice were made to fast for 24 h and treated once (day zero) then carefully monitored for 14 days.
Normal control group: mice received saline orally once;
Negative control group: mice received vehicle (DMSO) orally once;
Positive control group: mice were injected with Dox (15 mg/kg BW, i.p.) once.
Isatin-sulfonamide-derivative-compound-treated groups (2a, 3a, 3d and 4b, 4c and 4d) of mice received 250 mg/kg BW of each orally once.
The animals’ BWs were recorded at the end of the 14 days of observation. Blood samples were collected from the retro-orbital plexus and allowed to clot. Sera were prepared by centrifugation at 4000 rpm for 15 min and then kept frozen at − 80 °C for liver and kidney function tests (LFTs and KFTs). Thereafter, mice were deprived of food overnight, euthanized, and sacrificed by cervical dislocation. Liver and kidney tissues were collected, washed with ice-cold saline, and weighed. Excised weighed livers and kidneys were fixed in a suitable buffer for histological examination.
Liver and kidney tissues were fixed in 10% neutral buffered formaldehyde overnight and then embedded in paraffin, […] in serial grades of alcohols, cleared in xylene, and were subjected to […], where 4 μm thick tissue sections were cut by rotatory microtome. Tissue sections were stained with hematoxylin and eosin (H and E) for histological examination using full HD light microscopic imaging system (Leica Microsystems GmbH, Wetzlar, Germany). Standard procedures for sample fixation and staining were done as previously described.

HepG2 cells = experiment: Annexin V/FITC-PI apoptosis assay; format: cell-based, human; conditions: for %Cell Death Early Apoptosis / %Cell Death Late Apoptosis / %Cell Death Total Apoptosis / Necrosis: HepG2, IC50 of the compound, 24 h (method says 48 h)
Experimental: Annexin V/PI double staining kit (eBiosciencesDx) was used to detect apoptotic activity of the selected isatin sulfonamide derivatives. The Annexin V corresponding signal provides a very sensitive marker for cellular apoptosis, while PI was used to detect necrotic or late apoptotic cells, identified by the loss of plasma integrity and loss of nuclear membranes.
Briefly, 1 × 10^5 cells/mL of HepG2 cells were seeded into a 6-well plate and incubated at 37 °C, 5% CO2, overnight. […] After time elapsed, trypsinization of cells was carried out. Washing was done by PBS once, followed by fixation using 70% ethanol. Fixed cells were stored at 4 °C for 2 h, then centrifuged at 500× g for 5 min. Again, cells were washed with PBS prior to staining. An amount of 200 μL of the staining solution (annexin V- fluorescein 5-isothiocyanate (FITC) and PI in binding buffer (10 mM HEPES, 140 mM NaCl, and 2.5 mM CaCl2 at pH 7.4)) were added to the cell suspension and incubated at 37 °C for 20 to 30 min in dark and analyzed with a fluorescence-activated cell sorter (FACS) (BD FACSCalibur, BD Biosciences, California, USA). Data were analyzed using ModFit LT v2.0 (Verity Software House, Topsham, Maine, USA).
These plots were divided into four regions corresponding to: • (1) Viable cells, which are negative to both probes (PI/FITC −/−), • (2) Apoptotic cells, which are PI negative and Annexin positive (PI/FITC −/+), • (3) Late apoptotic cells, which are both PI and Annexin positive (PI/FITC +/+), • (4) Necrotic cells, which are PI positive and Annexin negative (PI/FITC+/−).

EGFR = EGFR level in HepG2 cell lysate (ELISA); format: cell-based, human; conditions: HepG2 treated at IC50, 48 h
Experimental: (§1) As previously described, with little modification, HepG2 cells were cultured in T25 flask until they reached 30% confluency. […] After treatment, cells were washed by PBS, trypsinized and centrifuged at 10,000 rpm. The formed pellets were washed twice with PBS and lysed in 1 mL ice-cold radio immunoprecipitation assay (RIPA) lysis buffer (50 mM Tris-HCl, pH 8.0, 150 mM NaCl, 1% Triton X-100, 0.5% sodium deoxycholate, 0.1% sodium dodecyl sulfate) and kept on ice for 20 min. Then, the mixture was centrifuged at 15,000 rpm for 15 min to remove any cell debris. The cell lysate was aliquoted and stored at −80 °C for determination of protein using Pierce BCA Protein Assay Kit (Thermo Fisher Scientific, Waltham/Boston, USA) according to manufacturer’s recommendations and determination of other biochemical parameters including EGFR, urokinase Plasminogen Activator (uPA), B-Cell Lymphoma-2 (Bcl-2), heparanase, and oxidative stress markers (glutathione; GSH and malonaldehyde; MDA).
(§2) Levels of EGFR [37] and heparanase in cell lysate were investigated using commercially available enzyme-linked immunosorbent assay (ELISA) kits supplied by Abcam (Cat. No. ab269558, ab256401, respectively). Levels of uPA [39] were measured using ELISA kit supplied by Creative Diagnostics (New York, USA, Cat. No. DEIA1630). Bcl-2 levels were determined using ELISA kit supplied by Zymed Laboratories, Carlsbad, California (Cat. No. 99-0042). Briefly, standards and samples were added to corresponding 96-well plate coated with suitable antibody. After the washing step, biotinylated anti-human antibody was added to each well. After washing away unbound biotinylated antibody, horseradish peroxidase (HRP)-conjugated streptavidin was pipetted into each well. A peroxidase substrate solution was added to all wells, after washing, and the color developed was proportionate to the amount of EGFR bound. Finally, the stop solution was added and the color intensity was measured at 450 nm.

heparanase = experiment: Heparanase level in HepG2 cell lysate (ELISA); format: cell-based, human; conditions: HepG2 treated at IC50, 48 h
Experimental: as §1, §2

glutathione (GSH) = experiment: GSH level in HepG2 cell lysate (DTNB method); format: cell-based, human; conditions: HepG2 treated at IC50, 48 h
Experimental: as §1
Glutathione levels were determined using GSH Biodiagnostics kit (Cairo, Egypt). The method is based on the reduction of 5,5′dithiobis (2-nitrobenzoic acid) (DTNB) with glutathione (GSH) to produce a yellow compound. The reduced chromogen is directly proportional to GSH concentration and its absorbance was measured at 405 nm.

[1] = In vitro safety/cell viability MTT assay on normal RPE1 cells; format: cell-based, human; conditions: human, RPE1 cells (noncancerous), normal RPE1 cells, MTT
RPE1 cells = experiment: as above; format: cell-based, human; conditions: RPE1, MTT, in words

Row | SMILES | S.ALT (mice) | S.AST (mice) | S.Creatinine (mice) | S.D.Bilirubin (mice) | S.T.Bilirubin (mice) | S.Urea (mice) | Histopathology of liver and kidney tissues (H and E) versus control groups (mice) | Kidney histology (H and E photomicrographs) (mice) | Liver histology (H and E photomicrographs) (mice) | %Cell Death Early Apoptosis (HepG2 cells) [%] | %Cell Death Late Apoptosis (HepG2 cells) [%] | %Cell Death Total Apoptosis (HepG2 cells) | Necrosis (HepG2 cells) [%] | EGFR level in cell lysate (EGFR) | Heparanase level in cell lysate (heparanase) | GSH level in cell lysate (glutathione (GSH)) | CC50 at 48 h [1] [µM] | viability at 48 h, 100 p.p.m (μg/mL) [1] [%] | Effect towards the noncancerous cell line (RPE1) (RPE1 cells) | Survival over the treatment period (14 days) (mice) | further results
1 | COc1cccc2c1C(=O)c1c(O)c3c(c(O)c1C2=O)C[C@@](O)(C(=O)CO)C[C@@H]3O[C@H]1C[C@H](N)[C@H](O)[C@H](C)O1 [Doxorubicin, reference compound] | 52.97 ± 0.92 *^,# U/L | 46.93 ± 0.30 *^,# U/L | 1.57 ± 0.02 *^,# mg/dL | 0.36 ± 0.026 *^,# mg/dL | 1.45 ± 0.072 mg/dL | 83.27 ± 0.95 *^,# mg/dL | hepatic and renal pathology were obvious | dilatation of the cortical tubular segments | hepatocellular necrotic changes | 1.85 | 26.27 | 42.38% | 14.26 | 27.5 ± 1.7 ^a* pmol/mg protein | 902.1 ± 21 ^a* pmol/mg protein | 0.8 ± 0.1 ^a* µmol/mg protein |  |  |  |  | 
2 | Cc1ccc(C(=O)CC2(O)C(=O)Nc3ccc(S(=O)(=O)N4CCCCC4)cc32)cc1 (centres unmarked) [Compound 3a, 3-hydroxy-3-(2-oxo-2-(p-tolyl)ethyl)-5-(piperidin-1-ylsulfonyl)indolin-2-one] | 27.05 ± 0.81 ^^ U/L | 36.78 ± 0.33 ^^ U/L | 0.82 ± 0.03 ^^ mg/dL | 0.16 ± 0.002 ^^ mg/dL | 0.65 ± 0.026 ^^ mg/dL | 51.25 ± 0.36 ^^ mg/dL | no differences in the hepatic or renal tissue structures | intact well-organized histological features of renal parenchyma | no inflammatory cell infiltrates | 3.56 | 29.58 | 46.3% and 46.29% | 13.15 | 42 ± 2.3 pmol/mg protein and 42 ± 2.3 ^a*^,b* pmol/mg protein | 1262 ± 35 pmol/mg protein and 1262 ± 35 ^a*^,b* pmol/mg protein | 1.6 ± 0.7 µmol/mg protein | > 100 | 74 | non-cytotoxic effect | survived | Physical or abnormal changes (body weight, skin, fur, eyes, behavior, overall appearance) (mice): No physical or abnormal changes were observed; Total apoptosis, fold greater than negative control HepG2 cells (HepG2 cells; HepG2, negative control 1.47%): 31.49 fold
3 | CC(=O)Nc1ccc(C(=O)C=C2C(=O)Nc3ccc(S(=O)(=O)N4CCCCC4)cc32)cc1 [Compound 4b, N-(4-(2-(2-oxo-5-(piperidin-1-ylsulfonyl)indolin-3-ylidene)acetyl)phenyl)acetamide] | 27.95 ± 0.34 ^^ U/L | 35.18 ± 0.47 ^^ U/L | 0.88 ± 0.06 ^^ mg/dL | 0.17 ± 0.001 ^^ mg/dL | 0.70 ± 0.013 ^^ mg/dL | 62.60 ± 3.64 ^^ mg/dL | no differences in the hepatic or renal tissue structures | almost intact histological features of renal parenchyma | apparently intact hepatocytes | 6.12 | 12.61 | 28.1% and 28.14% | 9.41 | 87.49 ± 3.4 ^a*^,b* pmol/mg protein | 1827 ± 30 pmol/mg protein and 1827 ± 30 ^a*^, b* pmol/mg protein | 1.1 ± 0.7 µmol/mg protein | > 100 | 66.4 | non-cytotoxic effect | survived | Physical or abnormal changes (body weight, skin, fur, eyes, behavior, overall appearance) (mice): No physical or abnormal changes were observed
4 | CC(=O)Nc1cccc(C(=O)C=C2C(=O)Nc3ccc(S(=O)(=O)N4CCCCC4)cc32)c1 [Compound 4c, N-(3-(2-(2-oxo-5-(piperidin-1-ylsulfonyl)indolin-3-ylidene)acetyl)phenyl)acetamide] | 28.41 ± 0.28 ^^ U/L | 37.35 ± 1.47 ^^ U/L | 0.79 ± 0.04 ^^ mg/dL | 0.16 ± 0.007 ^^ mg/dL | 0.73 ± 0.014 ^^ mg/dL | 55.76 ± 5.64 ^^ mg/dL | no differences in the hepatic or renal tissue structures | almost intact well-organized morphological features | almost intact histological features of hepatic parenchyma | 2.88 | 18.08 | 32.0% and 32.02% | 11.06 | 54 ± 2.4 ^a*^,b* pmol/mg protein | 1449 ± 12.5 pmol/mg protein and 1449 ± 12.5 ^a*^,b* pmol/mg protein | 2.1 ± 0.3 ^b* µmol/mg protein | > 100 | 80.7 | non-cytotoxic effect | survived | Physical or abnormal changes (body weight, skin, fur, eyes, behavior, overall appearance) (mice): No physical or abnormal changes were observed
